Source: patent US20140299020A1, “WATER-BASED BLACK INK COMPOSITION, INKJET RECORDING METHOD USING SAME, AND COLORED BODY” (NIPPON KAYAKU KABUSHIKI KAISHA, priority 2011, published 2014)

Assay: Solubility with respect to water at room temperature
Assay type: physicochemical
Settings: lithium salt

solubility [mg/mL] | SMILES
≥ 100 | Nc1c(N=Nc2ccc3c(O)c(N=Nc4ccc(N=Nc5ccc(S(=O)(=O)O)cc5)cc4S(=O)(=O)O)c(S(=O)(=O)O)cc3c2S(=O)(=O)O)cc(S(=O)(=O)O)c2cc(S(=O)(=O)O)c(N=Nc3ccc([N+](=O)[O-])cc3S(=O)(=O)O)c(O)c12 [Compound 1]
≥ 100 | Nc1c(N=Nc2ccc3c(O)c(N=Nc4ccc(N=Nc5ccc(S(=O)(=O)O)cc5)cc4S(=O)(=O)O)c(S(=O)(=O)O)cc3c2S(=O)(=O)O)cc(S(=O)(=O)O)c2cc(S(=O)(=O)O)c(N=Nc3ccc(S(=O)(=O)O)cc3[N+](=O)[O-])c(O)c12 [Compound 3]

SMILES | solubility [mg/mL]
Cc1cc(N=Nc2c(S(=O)(=O)O)cc3c(S(=O)(=O)O)c(N=Nc4cc(S(=O)(=O)O)c5cc(S(=O)(=O)O)c(N=Nc6ccc([N+](=O)[O-])cc6S(=O)(=O)O)c(O)c5c4N)ccc3c2O)c(OCCCS(=O)(=O)O)cc1N=Nc1ccc([N+](=O)[O-])cc1S(=O)(=O)O [Compound 16] | ≥ 100
